Reference: patent publication US20240391948A1, “NOVEL COMPOUND THAT INHIBITS TNF-ALPHA GENERATION AND INFLAMMASOME ACTIVITY AND PREPARATION METHOD THEREFOR” (SHAPERON INC., priority 2021, published 2024)

Key:
Format in all cases: cell-based
[1] = test system: U937 cells (human monocytic cell line); assay: BzATP-induced IL-1β secretion inhibition in PMA-differentiated U937 cells; settings: U-937, U937 cells differentiated with PMA, read-out: IL-1β production inhibition grade (IC50)
In short: (§1)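 Inhibition is given as IC50 (μM) in A-D bands, using distinct thresholds for TNF-α and for IL-1β. Secretion followed Pam2CSK4 stimulation (TNF-α) or BzATP stimulation (IL-1β) of compound-pretreated, PMA-differentiated U937 macrophages.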

[2] = test system: J774A.1 (Mouse BALB/c monocyte macrophage cell line) cells; assay: LPS-induced TNF-α secretion inhibition in J774A.1 cells; settings: J774.A1, 1 μM compound, graded compared to taurodeoxycholic acid (positive control), read-out: TNF-α production inhibition grade
In short: (§2)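 Grades (A >100%, B 50–100%, C 20–50%, D <20%) express cytokine suppression by 1 μM compound relative to taurodeoxycholic acid. LPS-induced TNF-α and LPS+ATP-induced IL-1β secretion were measured in murine J774A.1 macrophage cells.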

[3] = test system: J774A.1 (Mouse BALB/c monocyte macrophage cell line) cells; assay: LPS+ATP-induced IL-1β secretion inhibition in J774A.1 cells; settings: J774.A1, 1 μM compound, graded compared to taurodeoxycholic acid (positive control), read-out: IL-1β production inhibition grade
In short: as §2

[4] = test system: U937 cells (human monocytic cell line); assay: Pam2CSK4-induced TNF-α secretion inhibition in PMA-differentiated U937 cells; settings: U-937, U937 cells differentiated with PMA, read-out: TNF-α production inhibition grade (IC50)
In short: as §1

Row | Structure (SMILES) | IC50 [1] [nM] | inhibition at 1 µM [2] [%] | inhibition at 1 µM [3] [%] | IC50 [4] [nM]
1 | C[C@H](CCC(=O)N[C@@H](Cc1ccccc1)CS(=O)(=O)O)[C@H]1CC[C@H]2[C@@H]3CC[C@@H]4CC(=O)CC[C@]4(C)[C@H]3CC[C@]12C [NC30014] | ≥ 200 | < 20 | 20 to 50 | 500 to 1000
2 | C[C@H](CCC(=O)N[C@H](CS(=O)(=O)O)c1ccccc1)[C@H]1CC[C@H]2[C@@H]3CC[C@@H]4C[C@H](O)CC[C@]4(C)[C@H]3CC[C@]12C [NC10074] | 50 to 100 | < 20 | > 100 | < 500
3 | C[C@H](CCC(=O)N(CCN(C)C)CCS(=O)(=O)O)[C@H]1CC[C@H]2[C@@H]3CC[C@@H]4CC(=O)CC[C@]4(C)[C@H]3CC[C@]12C [NC30035] | < 50 | > 100 | > 100 | 500 to 1000
4 | C[C@H](CCC(=O)N1CC(S(=O)(=O)O)C1)[C@H]1CC[C@H]2[C@@H]3[C@H](O)C[C@@H]4C[C@H](O)CC[C@]4(C)[C@H]3C[C@H](O)[C@]12C [NC20012] | < 50 | < 20 | > 100 | 500 to 1000
5 | C[C@H](CCC(=O)N(C)CCS(=O)(=O)O)[C@H]1CC[C@H]2[C@@H]3[C@H](O)C[C@@H]4C[C@H](O)CC[C@]4(C)[C@H]3C[C@H](O)[C@]12C [NC20004] | < 50 | < 20 | > 100 | 500 to 1000
6 | CC[C@H]1[C@@H](O)[C@@H]2[C@H](CC[C@]3(C)[C@@H]([C@H](C)CCC(=O)N(CCS(=O)(=O)O)c4ccccc4)CC[C@@H]23)[C@@]2(C)CC[C@@H](O)C[C@@H]12 [NC40037] | 50 to 100 | < 20 | 20 to 50 | 500 to 1000
7 | CC(C)[C@@H](CS(=O)(=O)O)NC(=O)CC[C@@H](C)[C@H]1CC[C@H]2[C@@H]3CC[C@@H]4C[C@H](O)CC[C@]4(C)[C@H]3C[C@H](O)[C@]12C [NC10032] | 50 to 100 | < 20 | 50 to 100 | ≥ 2000
8 | CC(C)N(CCS(=O)(=O)O)C(=O)CC[C@@H](C)[C@H]1CC[C@H]2[C@@H]3[C@H](O)C[C@@H]4C[C@H](O)CC[C@]4(C)[C@H]3C[C@H](O)[C@]12C [NC20007] | < 50 | < 20 | > 100 | 1000 to 2000
9 | CC(C)[C@H](CS(=O)(=O)O)NC(=O)CC[C@@H](C)[C@H]1CC[C@H]2[C@@H]3CC[C@@H]4C[C@H](O)CC[C@]4(C)[C@H]3CC[C@]12C [NC10068] | < 50 | < 20 | > 100 | < 500
10 | C[C@H](CCC(=O)N1CCN(C)CC1)[C@H]1CC[C@H]2[C@@H]3CC[C@@H]4C[C@H](O)CC[C@]4(C)[C@H]3C[C@H](O)[C@]12C [NC10019] | ≥ 200 | < 20 | 20 to 50 | 500 to 1000
11 | CC(C)[C@@H](CS(=O)(=O)O)NC(=O)CC[C@@H](C)[C@H]1CC[C@H]2[C@@H]3CC[C@@H]4C[C@H](O)CC[C@]4(C)[C@H]3CC[C@]12C [NC10072] | < 50 | < 20 | 20 to 50 | < 500
12 | CCN(CC)CCNC(=O)CC[C@@H](C)[C@H]1CC[C@H]2[C@@H]3CC[C@@H]4C[C@H](O)CC[C@]4(C)[C@H]3C[C@H](O)[C@]12C [NC10017] | < 50 | > 100 | > 100 | 500 to 1000
13 | CC(C)C[C@H](CS(=O)(=O)O)NC(=O)CC[C@@H](C)[C@H]1CC[C@H]2[C@@H]3[C@H](O)C[C@@H]4C[C@H](O)CC[C@]4(C)[C@H]3C[C@H](O)[C@]12C [NC20031] | 50 to 100 | < 20 | 50 to 100 | < 500
14 | CC(C)[C@@H](CS(=O)(=O)O)NC(=O)CC[C@@H](C)[C@H]1CC[C@H]2[C@@H]3CC[C@@H]4CC(=O)CC[C@]4(C)[C@H]3CC[C@]12C [NC30016] | ≥ 200 | 20 to 50 | 20 to 50 | < 500
15 | C[C@H](CCC(=O)N(CCS(=O)(=O)O)CC(N)=O)[C@H]1CC[C@H]2[C@@H]3CC[C@@H]4C[C@H](O)CC[C@]4(C)[C@H]3C[C@H](O)[C@]12C [NC10005] | 100 to 200 | < 20 | 20 to 50 | 1000 to 2000
16 | CC[C@H]1[C@@H](O)[C@@H]2[C@H](CC[C@]3(C)[C@@H]([C@H](C)CCC(=O)N[C@H]4CCCC[C@H]4S(=O)(=O)O)CC[C@@H]23)[C@@]2(C)CC[C@@H](O)C[C@@H]12 [NC40027] | ≥ 200 | < 20 | 50 to 100 | ≥ 2000
17 | C[C@H](CCC(=O)N(CCS(=O)(=O)O)C1CCOCC1)[C@H]1CC[C@H]2[C@@H]3[C@H](O)C[C@@H]4C[C@H](O)CC[C@]4(C)[C@H]3C[C@H](O)[C@]12C [NC20008] | 50 to 100 | < 20 | > 100 | 500 to 1000
18 | C[C@H](CCC(=O)NC[C@H](C)S(=O)(=O)O)[C@H]1CC[C@H]2[C@@H]3[C@H](O)C[C@@H]4C[C@H](O)CC[C@]4(C)[C@H]3C[C@H](O)[C@]12C [NC20022] | < 50 | < 20 | < 20 | 1000 to 2000
19 | C[C@H](CCC(=O)N(CCS(=O)(=O)O)c1ccccc1)[C@H]1CC[C@H]2[C@@H]3[C@H](O)C[C@@H]4C[C@H](O)CC[C@]4(C)[C@H]3C[C@H](O)[C@]12C [NC20037] | < 50 | < 20 | 50 to 100 | < 500
20 | CC(C)N(CCS(=O)(=O)O)C(=O)CC[C@@H](C)[C@H]1CC[C@H]2[C@@H]3CC[C@@H]4C[C@H](O)CC[C@]4(C)[C@H]3C[C@H](O)[C@]12C [NC10024] | 50 to 100 | < 20 | > 100 | 1000 to 2000
21 | C[C@H](CCC(=O)N[C@H]1CCCC[C@H]1S(=O)(=O)O)[C@H]1CC[C@H]2[C@@H]3CC[C@@H]4CC(=O)CC[C@]4(C)[C@H]3CC[C@]12C [NC30027] | < 50 | > 100 | > 100 | 500 to 1000
22 | C[C@H](CCC(=O)NC1(CS(=O)(=O)O)CC1)[C@H]1CC[C@H]2[C@@H]3[C@H](O)C[C@@H]4C[C@H](O)CC[C@]4(C)[C@H]3C[C@H](O)[C@]12C [NC20032] | < 50 | < 20 | 50 to 100 | ≥ 2000
23 | CC[C@H]1[C@@H](O)[C@@H]2[C@H](C[C@H](O)[C@]3(C)[C@@H]([C@H](C)CCC(=O)N[C@H]4CCCC[C@H]4S(=O)(=O)O)CC[C@@H]23)[C@@]2(C)CC[C@@H](O)C[C@@H]12 [NC50027] | ≥ 200 | < 20 | 20 to 50 | 1000 to 2000
